Measurements: article PMC7016953 (Cells, 2020)

How the values were obtained:
[1] = system: T1, TRPC6; assay: Whole-cell patch-clamp recordings in HEK TRPC6-YFP cells; assay type: cell-based, human; conditions: 100 µM artemisinin
T1 construct: expressed in transfected cells
Description: The recordings of TRPC3, TRPC6, or TRPC7 membrane currents in HEK293 or PC12 cells were realized by using a Multiclamp 700B amplifier with a Digidata 1440A digitizer controlled by the PClamp 10 software (all Molecular Devices, Sunnyvale, CA, U.S.A.). Recordings were obtained at room temperature either in the whole-cell or in an outside-out configuration as indicated. Cells were seeded as described above, but at lower density, mounted in a chamber (Warner Instruments, Hamden, CT; U.S.A.), placed onto the stage of an inverted microscope, and perfused with required solution. The standard extracellular solution contained 140 mM NaCl, 5 mM CsCl, 2 mM MgCl2, 1 mM CaCl2, 10 mM HEPES, and 0.035% BSA adjusted to pH 7.4 with NaOH. The composition of standard intracellular solution was 140 mM CsCl, 1 mM MgCl2, 5 mM EGTA, and 10 mM HEPES adjusted to pH 7.25 with CsOH; the osmolarity was 295 mOsm l^−1. In outside-out measurements, the pipette solution contained 5 mM EGTA and 1.1 mM CaCl2 to achieve a calculated free Ca^2+ concentration of 100 nM.
Patch pipettes were pulled from borosilicate glass capillaries BG150F-8P (Science Products, Hofheim, Germany) with a PIP6 pipette puller (HEKA Elektronik, Lambrecht, Germany). […] In all whole-cell measurements, the series resistance was lower than 13 MΩ, and compensated by 70%. […]

[2] = system: human protein kinase C (PKC) ε; assay: Plasma membrane translocation of PKCε-YFP fusion protein; assay type: cell-based; conditions: 50 µM
[3] = system: T2, heteromeric TRPC3:TRPC6 channel complexes; assay: Fluo-4 Ca2+ influx assay in HEK293 cells co-expressing TRPC3 and TRPC6; assay type: cell-based; conditions: fluo-4 concentration response analysis
T2 construct: expressed in transfected cells; host or cells: HEK293, stably co-transfected
Description: All fluorometric Ca^2+ assays were done in (4-(2-hydroxyethyl)-1-piperazineethanesulfonic acid) (HEPES)-buffered saline (HBS), containing 132 mM NaCl, 6 mM KCl, 1 mM MgCl2, 1 mM CaCl2, 5.5 mM D-glucose, 10 mM HEPES, and 0.035% bovine serum albumin (BSA) adjusted to pH 7.4 with NaOH. For measurements in Ca^2+-free bath solutions, a modified HBS without CaCl2 was supplemented with 200 µM ethylene glycol-bis(β-aminoethyl ether)-N,N,N′,N′-tetraacetic acid (EGTA).
The primary compound screen and the generation of concentration response curves in HEK293 cells or in PC12 cells were performed by using a custom-made fluorescence plate imager built into a robotic liquid handling station equipped with a 96-tip multichannel head (Freedom Evo 150, Tecan, Männedorf, Switzerland) as described previously. To this end, trypsinized cell suspensions were loaded with 4 µM fluo-4/AM (Invitrogen, Thermo Fisher Scientific, Waltham, MA, U.S.A.) in cell culture medium for 30 min at 37 °C. After brief centrifugation, cells were resuspended in HBS and dispensed into black pigmented, clear-bottom 384-well plates (Greiner µClear, Frickenhausen, Germany). Plates were mounted on the imager, and fluorescence signals were recorded with a cooled Zyla 5.5 camera (Andor, Belfast, UK) through a 515 nm long pass filter. The image acquisition was controlled by the µManager software (http://micro-manager.org), and excitation with a LED array (470 nm) was synchronized by the camera trigger output. After baseline recording for about 60 s, the compound libraries or serial dilutions of activators or inhibitors were added to the cells by the liquid handling device. When inhibitory potencies were evaluated, a second pipetting step with the respective reference agonist was performed. Fluorescence intensities were calculated from image stacks for each well with ImageJ (National Institutes of Health, Bethesda, MD, U.S.A.), corrected for background signals, and normalized to the initial intensities (F/F0). […]

C[C@@H]1CC[C@H]2[C@@H](C)C(=O)O[C@@H]3O[C@@]4(C)CC[C@@H]1[C@]32OO4 [artemisinin]
ionic currents in TRPC6-expressing HEK cells [1]: remained unaffected | plasma membrane translocation of PKCε-YFP [2]: did not induce a discernible plasma membrane translocation | response of cells stably transfected with both TRPC3 and TRPC6 [3]: in a very similar fashion as HEKTRPC3-YFP cells
